Values quoted from earlier work as cited in US20020068688A1, “Cleaning compositions” (Unilever Home & Personal Care USA, Division of Conopco, Inc., priority 2000, published 2002).

Settings: grams of solid to form a saturated solution in 100 grams of water at 20° C.

- Water Solubility: >100 g/100 g
Compound: NC(N)=O [Urea]
